# According to patent US7968554B2, “Pyrazolo[3,4-d]pyrimidine derivatives” (Hoffman-La Roche Inc., priority 2007, dated 2011):
# Target: T1, b-Raf V600E (Homo sapiens, UniProt P15056, V600E)
# T1 construct: recombinant human b-Raf residues 416-end containing a V600E mutation; purchased Upstate 14-5M; host or cells: baculovirus, Sf21 insect cells
# Assay: b-Raf V600E mutant HTRF assay with 6H-MEK as substrate (dose response)
# Assay type: biochemical
# Conditions: kinase enzyme inhibition, 6H-MEK substrate, read-out: bRaf(V600E) IC50
# Procedure: Kinase Enzyme Inhibition Assay (IC50)
# • Enzyme: recombinant human b-Raf residues 416-end with N-terminal GST-tag from Upstate; (expressed by baculovirus in Sf21 insect cells), 0.26 mg/mL (3.87 μM assuming a molecular weight of 67.2 kD) Cat. #14-530M, Lot #25502AU, stored at −80° C. • Substrate: WT full-length 6H-MEK, 4.94 mg/mL (154.4 μM assuming a MW of 32 kD) stored at −15° C. • Antibodies: Rabbit (α-P-(Ser 217/221)-MEK-1/2 Ab (from Cell Signaling, Cat. #9121B, Lot 14); Eu-(α-rabbit IgG (from Wallac, Cat. #AD0083, Lot 318663, 710 ug/mL, 4.4 μM); (α-6H-SureLight-APC (from Martek, Cat. #AD0059H, Lot E012AB01, 3.03 μM). • Reader: Envision from PerkinElmer, HTRF reading mode with 412 mirror • Assay Plate: Matrix all-black polypropylene plates (Cat. #4344) • Others: Weidman 384 polypropylene plates (REMP) for compound plate. Assay Procedure: • (1) Prepare Kinase Assay Buffer (KAB): 50 mM HEPES (HyClone) pH7, 10 mM MgCl2, 1 mM DTT, 0.1 mM […], and 0.3 mg/ml BSA. • (2) Prepare 6H-MEK (150 nM) in KAB. Add 12 μL/well to the assay plate. • (3) Prepare ATP (66 μM) in KAB. • (4) Dilute compounds to 2.4 mM and any positive controls to 480 μM in DMSO. Perform 10-point 3× dilution in DMSO. Withdraw 2.5 μL/well of DMSO solution and add to 27.5 μL/well ATP solution in (3). • (5) Mix, then add 6 μL/well of solution in (4) to the assay plate for a DMSO concentration of 2.1% during MEK phosphorylation. • (6) Prepare b-Raf WT (100 μM) in KAB. • (7) Add 6 μL/well of KAB in columns 1-2 and 6 μL/well of b-Raf WT in columns 3-24. • (8) Incubate at 37° C. for 30 min. • (9) Prepare rabbit (α-P-(Ser 217/221 )-MEK-1/2 Ab (1:200 from stock) in AB1: 50 mM HEPES pH7, 0.2 mg/ml BSA, and 43 mM EDTA. • (10) To stop reaction, add 6 μL/well of solution from (9) to the assay plate and incubate at 37° C. for 30 min. • (11) Prepare Eu-(α-rabbit IgG (9 nM) and (α-6H-SureLight-APC (180 nM) in AB2: 50 mM HEPES pH7 and 0.2 mg/mL BSA. • (12) Add 6 μL/well of solution from (11) to the assay plate. • (13) For determining the spectrum cross talk factor, prepare 2 samples following steps (1) to (10). For the blank sample, add 6 μL/well of AB2. For the cross talk factor sample, add 6 μL/well of Eu-anti rabbit IgG (9 nM). • (14) Incubate at room temperature for 1.5 hours. • (15) Read HTRF signals at 615 nm and 665 nm on the Envision. Normalize HTRF signals after spectrum cross-talk correction. b-Raf V600E Mutant HTRF Assay With 6H-MEK as Substrate (Dose Response) Assay Principle:
# The assay utilizes 6H-MEK as the substrate. Upon b-Raf V600E phosphorylation, phosphorylated 6H-MEK is detected with rabbit anti-phospho-MEK1/2, Eu-labeled anti-rabbit, and APC-labeled anti-6H antibodies.
# Reagents and Instruments:
# • Enzyme: recombinant human b-Raf residues 416-end containing a V600E mutation with N-terminal GST-tag from Upstate; (expressed by baculovirus in Sf21 insect cells), 0.26 mg/mL ([…] assuming a molecular weight of 67.3 kD) Cat. #14-5M, Lot #25633AU, stored at −80° C. • Substrate: WT full-length 6H-MEK, 4.94 mg/mL (154.4 μM assuming a MW of 32 kD) stored at −15° C. • Antibodies: Rabbit (α-P-(Ser 217/221)-MEK-1/2 Ab (from Cell Signaling, Cat. #9121B, Lot 14); Eu-(α-rabbit IgG (from Wallac, Cat. #AD0083, Lot 318663, 710 ug/mL, 4.4 μM); (α-6H-SureLight-APC (from Martek, Cat. #AD0059H, Lot E012AB01, 3.03 μM). • Reader: Envision from PerkinElmer, HTRF reading mode with 412 mirror • Assay Plate: Matrix all-black polypropylene plates (Cat. #4344) • Others: Weidman 384 polypropylene plates (REMP) for compound plate. Assay Procedure: • (1) Prepare Kinase Assay Buffer (KAB): 50 mM HEPES (HyClone) pH7, 10 mM MgCl2, 1 mM DTT, 0.1 mM […], and 0.3 mg/ml BSA. • (2) Prepare 6H-MEK (150 nM) in KAB. Add 12 μl/well to the assay plate. • (3) Prepare ATP (66 μM) in KAB. • (4) Dilute compounds to 2.4 mM and positive controls to 480 μM in DMSO. • Perform 10-point 3× dilution in DMSO. […]
# T1 sequence (P15056 416-766 V600E): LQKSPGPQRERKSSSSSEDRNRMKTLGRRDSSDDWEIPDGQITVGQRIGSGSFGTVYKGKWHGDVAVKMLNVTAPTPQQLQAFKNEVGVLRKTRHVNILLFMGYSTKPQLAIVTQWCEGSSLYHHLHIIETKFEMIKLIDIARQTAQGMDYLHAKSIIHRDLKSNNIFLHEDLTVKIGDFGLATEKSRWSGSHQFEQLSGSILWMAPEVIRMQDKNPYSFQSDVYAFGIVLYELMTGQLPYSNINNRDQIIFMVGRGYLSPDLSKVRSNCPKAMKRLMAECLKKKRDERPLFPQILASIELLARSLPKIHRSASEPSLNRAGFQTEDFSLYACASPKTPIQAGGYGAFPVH
row,IC50 [µM],Compound
1,< 10,"Cc1ccc(OCc2ccccc2)cc1OCc1nn(C)c2ncnc(N)c12 [Example 15, 3-(5-Benzyloxy-2-methyl-phenoxymethyl)-1-methyl-1H-pyrazolo[3,4-d]pyrimidin-4-ylamine]"
2,> 10,"Cn1nc(COc2cccc(OCc3ccccc3)c2)c2c(N)ncnc21 [Example 7, 3-(3-Benzyloxy-phenoxymethyl)-1-methyl-1H-pyrazolo[3,4-d]pyrimidin-4-ylamine]"
3,> 10,"Cc1noc(-c2ccc(C)c(OCc3nn(C)c4ncnc(N)c34)c2)n1 [Example 13, 4-Amino-1-1-methyl-3-[2-methyl-5-(3-methyl-[1,2,4]oxadiazol-5-yl)-phenoxymethyl]-1H-pyrazolo[3,4-d]pyrimidine]"
4,> 10,"Cc1nnc(-c2ccc(C)c(OCc3nn(C)c4ncnc(N)c34)c2)o1 [Example 21, 1-Methyl-3-[2-methyl-5-(5-methyl-[1,3,4]oxadiazol-2-yl)-phenoxymethyl]-1H-pyrazolo[3,4-d]pyrimidin-4-ylamine]"
5,< 10,"Cc1ccc(NC(=O)c2cccc(Cl)c2)cc1OCc1nn(C)c2ncnc(N)c12 [Example 11, N-[3-(4-Amino-1-methyl-1H-pyrazolo[3,4-d]pyrimidin-3-ylmethoxy)-4-methyl-phenyl]-3-chloro-benzamide]"
6,< 10,"Cc1ccc(OCc2ccc(Cl)cc2)cc1OCc1nn(C)c2ncnc(N)c12 [Example 19, 3-[5-(4-Chloro-benzyloxy)-2-methyl-phenoxymethyl]-1-methyl-1H-pyrazolo[3,4-d]pyrimidin-4-ylamine]"
7,< 10,"Cc1ccc(NC(=O)c2ccc(NCCO)c(Cl)c2)cc1OCc1nn(C)c2ncnc(N)c12 [Example 9, N-[3-(4-Amino-1-methyl-1H-pyrazolo[3,4-d]pyrimidin-3-ylmethoxy)-4-methyl-phenyl]-3-chloro-4-(2-hydroxy-ethylamino)-benzamide]"
8,< 10,"Cc1ccc(C(=O)Nc2ccc(Cl)cc2)cc1OCc1nn(C)c2ncnc(N)c12 [Example 17, 3-(4-Amino-1-methyl-1H-pyrazolo[3,4-d]pyrimidin-3-ylmethoxy)-N-(4-chloro-phenyl)-4-methyl-benzamide]"
